According to the NIST ThermoML archive (doi:10.1016/j.jct.2014.05.003):
± gives the expanded uncertainty stated by the source.

Columns and labels:
[1] = relative permittivity at zero frequency (dimensionless); wn = mass fraction of the nth substance listed; conditions: 298.15 K, 100 kPa, Liquid, Coaxial cylinder capacitor
[2] = wn = mass fraction of the nth substance listed; conditions: 298.15 K, 100 kPa, Liquid, Vibrating tube method

## CN(C)C=O [dimethylformamide] + O
[1]; w1 = 0.1
  relative permittivity at zero frequency: 76.8 ± 0.2
[1]; w1 = 0.2
  relative permittivity at zero frequency: 74.6 ± 0.2
[1]; w1 = 0.3
  relative permittivity at zero frequency: 72.2 ± 0.2
[2]; w1 = 0.1
  mass density: 996.3 ± 1 kg/m3
[2]; w1 = 0.2
  mass density: 996.4 ± 1 kg/m3
[2]; w1 = 0.3
  mass density: 996.9 ± 1 kg/m3

## CC(=O)N(C)C [N,N-dimethylethanamide] + O
[2]; w1 = 0.1
  mass density: 995.7 ± 1 kg/m3
[2]; w1 = 0.2
  mass density: 996.2 ± 1 kg/m3
[2]; w1 = 0.3
  mass density: 997.3 ± 1 kg/m3
